Data on 4 compounds can be found in patent publication US12337023B2, “Methods and compositions for the prevention and treatment of disease” (Stealth BioTherapeutics Inc., priority 2014, dated 2025).

For series [1], the system named is several mammalian cell types. The settings on record: energy-independent manner (Zhao, et al., 2003); cited from earlier work.
Series [2] relates to Col4a3 null mice (Alport mice). The experiment in a line: Survival of Col4a3 null mice (Alport Syndrome mouse model). The class given is in vivo. As to conditions: 1 mg/kg or 5 mg/kg once daily subcutaneous. The source says:
Six animals from experimental groups (1)-(4) were sacrificed for tissue collection at week 15. One kidney from each animal was harvested for protein/RNA analysis and the second kidney was collected for paraffin sections for analysis via microscopy. Survival data was collected for the remaining 10 animals in groups (1)-(4).

The conditions of series [3]: Col4a3 null mice, daily 5 mg/kg, 15 weeks of age, 30 minutes after the last injection; compared with 5 mg/kg at 6 weeks and 1 mg/kg at 15 weeks.
Protocol: Homozygous male Col4a3 null mice and wild-type litter mates were used in this study. Subjects were divided into the following groups: • (1) Healthy wild-type controls • (2) Col4a3 null mice treated with water • (3) Col4a3 null mice treated with 1 mg/kg D-Arg-2′6′-Dmt-Lys-Phe-NH2 • (4) Col4a3 null mice treated with 5 mg/kg D-Arg-2′6′-Dmt-Lys-Phe-NH2 • (5) Col4a3 null mice treated with 5 mg/kg D-Arg-2′6′-Dmt-Lys-Phe-NH2 (Pharmacokinetics group)
Groups (1)-(4) consisted of 16 mice, out of which 10 were used for survival rate studies and 6 for pathology and RNA/protein analysis. Group (5) consisted of 6 mice, 3 of which were sacrificed at 30 minutes after the 7th injection (age, 6 weeks), and 3 at 24 hours after the 7th injection (age, 6 weeks).
The target in another series is mu-opioid receptor (Homo sapiens, UniProt P35372). The settings on record: stated in the description, no test described; cited from earlier work.
mu-opioid receptor, sequence (P35372 whole entry, species assumed): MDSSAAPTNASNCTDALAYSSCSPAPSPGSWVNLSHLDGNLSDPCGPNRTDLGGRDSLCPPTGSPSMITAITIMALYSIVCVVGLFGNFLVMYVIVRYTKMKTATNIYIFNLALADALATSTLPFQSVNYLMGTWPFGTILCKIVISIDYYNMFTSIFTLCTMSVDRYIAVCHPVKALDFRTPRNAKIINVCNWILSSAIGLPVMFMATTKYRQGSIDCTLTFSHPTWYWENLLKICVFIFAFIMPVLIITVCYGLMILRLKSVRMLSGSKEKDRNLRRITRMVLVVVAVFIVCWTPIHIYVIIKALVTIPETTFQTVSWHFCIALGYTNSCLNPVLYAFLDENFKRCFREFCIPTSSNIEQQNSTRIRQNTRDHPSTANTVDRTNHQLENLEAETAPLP

Non-standard residues stand in square brackets, D forms with d. Residues, ends and D or L forms follow the SMILES beside them. No end group written: not given here. Dmt = Cc1cc(O)cc(C)c1C[C@H](N)C(=O)O

Consider 2′,6′-Dmt-D-Arg-Phe-Lys-NH2, for which the “penetration of the plasma membrane” value in series [1] is given as “readily penetrates the plasma membrane”.

Regarding `Cc1cc(O)cc(C)c1C[C@H](NC(=O)[C@H](N)CCCNC(=N)N)C(=O)N[C@@H](CCCCN)C(=O)N[C@@H](Cc1ccccc1)C(N)=O` [D-Arg-2′,6′-Dmt-Lys-Phe-NH2] (H-[dR][Dmt]KF-NH2), the “harm of peptide administration” value in series [2] is reported as “not harmful”. In addition, the plasma levels entry in series [3] is given as “highest”.

Consider F[dR]FK-NH2, for which, at mu-opioid receptor, the “mu-opioid receptor agonist activity” value was “does not have mu-opioid receptor agonist activity”.

On to Tyr-D-Arg-Phe-Lys-NH2, for which, on mu-opioid receptor, the “mu-opioid receptor agonist activity” value is “has mu-opioid receptor agonist activity”.
